Assay results taken from patent EP0503388A1, “Pregna-21-oic acid esters” (TEIKOKU SEIYAKU KABUSHIKI KAISHA, priority 1991, dated 1992).

Tested on: back of volunteers (10 healthy adult males)
Assay: Vasoconstrictive activity: skin paleness after application of 0.1 % ointment in fin chamber
Type: in vivo
Settings: for vasoconstrictive activity (skin paleness), overall result in words: 0.1 % by weight in white petrolatum base, compared with reference ointments of prednisolone and dexamethasone; for % of the number of subject which showed (+) Paleness was clearly observed / % of the number of subject which showed (±) Paleness was slightly obseved: 0.1 % by weight, about 20 mg of sample, 10 subjects
Protocol: The compounds of the present invention were tested for the vasoconstrictive activity in the following manner.
Each of the compounds (1) to (10) of the present invention was mixed in a white petrolatum base (white petrolatum : liquid paraffin = 9 : 1) at a concentration of 0.1 % by weight for use as a test sample. Commercially available steroidal medicaments (ointments of prednisolone and dexamethasone) were used at a concentration of 0.1 % by weight of the steroid as a reference sample. A commercially available ointment base was used as a control.
To one portion of the back of volunteers (10 healthy adult males) was applied each sample. About 20 mg of each sample was put in an aluminum part of fin chamber, which was applied. Two hours and four hours after the application, samples were simultanously removed. […] The result was evaluated based on the following criteria (-) Paleness was not observed. (±) Paleness was slightly obseved. (+) Paleness was clearly observed.

[1] = application time 2 hr, 2 hours after removal
[2] = application time 2 hr, 4 hours after removal
[3] = application time 4 hr, 2 hours after removal
[4] = application time 4 hr, 4 hours after removal

SMILES | vasoconstrictive activity (skin paleness), overall result in words | % of the number of subject which showed (+) Paleness was clearly observed [1] [%] | % of the number of subject which showed (±) Paleness was slightly obseved [1] [%] | % of the number of subject which showed (+) Paleness was clearly observed [2] [%] | % of the number of subject which showed (±) Paleness was slightly obseved [2] [%] | % of the number of subject which showed (+) Paleness was clearly observed [3] [%] | % of the number of subject which showed (±) Paleness was slightly obseved [3] [%] | % of the number of subject which showed (+) Paleness was clearly observed [4] [%] | % of the number of subject which showed (±) Paleness was slightly obseved [4] [%]
COC(=O)[C@@H](OC(=O)C(C)(C)C)[C@@]1(O)[C@H](C)C[C@H]2[C@@H]3CCC4=CC(=O)C=C[C@]4(C)[C@@]3(F)[C@@H](O)C[C@@]21C [Compound (9), methyl (20S)-11β,17-dihydroxy-9α-fluoro-16α-methyl-3-oxo-20-pivaloyloxy-1,4-pregnadien-21-oate] | excellent pharmacological activity | 0 | 0 | 0 | 0 | 0 | 50 | 10 | 90
COC(=O)[C@H](OC(=O)C(C)(C)C)[C@@]1(O)[C@H](C)C[C@H]2[C@@H]3CCC4=CC(=O)C=C[C@]4(C)[C@@]3(F)[C@@H](O)C[C@@]21C [Compound (10), methyl (20R)-11β,17-dihydroxy-9α-fluoro-16α-methyl-3-oxo-20-pivaloyloxy-1,4-pregnadien-21-oate] | – | 0 | 0 | 0 | 10 | 0 | 0 | 0 | 10
C[C@@H]1C[C@H]2[C@@H]3CCC4=CC(=O)C=C[C@]4(C)[C@@]3(F)[C@@H](O)C[C@]2(C)[C@@]1(O)C(=O)CO [Dexamethasone, dexamethasone, reference compound] | – | 0 | 0 | 0 | 10 | 0 | 10 | 0 | 20
COC(=O)[C@@H](O)[C@@]1(O)[C@H](C)C[C@H]2[C@@H]3CCC4=CC(=O)C=C[C@]4(C)[C@@]3(F)[C@@H](O)C[C@@]21C [(5), methyl (20S)-9α-fluoro-16α-methyl-11β,17,20-trihydroxy-3-oxo-1,4-pregnadien-21-oate] | did not show significant difference from reference | – | – | – | – | – | – | – | –
COC(=O)[C@H](OC(=O)C(C)(C)C)[C@@]1(O)CC[C@H]2[C@@H]3CCC4=CC(=O)C=C[C@]4(C)[C@H]3[C@@H](O)C[C@@]21C [Compound (4)] | – | 0 | 10 | 0 | 70 | 20 | 70 | 40 | 100
COC(=O)[C@@H](OC(C)=O)[C@@]1(O)[C@H](C)C[C@H]2[C@@H]3CCC4=CC(=O)C=C[C@]4(C)[C@@]3(F)[C@@H](O)C[C@@]21C [Compound (7), methyl (20S/R)-acetoxy-11β,17-dihydroxy-9α-fluoro-16α-methyl-3-oxo-1,4-pregnadien-21-oate] | excellent pharmacological activity | 0 | 10 | 0 | 50 | 30 | 70 | 50 | 80
C[C@]12C=CC(=O)C=C1CC[C@@H]1[C@@H]2[C@@H](O)C[C@@]2(C)[C@H]1CC[C@]2(O)C(=O)CO [Prednisolone, prednisolone, reference compound] | – | 0 | 0 | 0 | 0 | 0 | 0 | 0 | 0
COC(=O)[C@H](OC(C)=O)[C@@]1(O)[C@H](C)C[C@H]2[C@@H]3CCC4=CC(=O)C=C[C@]4(C)[C@@]3(F)[C@@H](O)C[C@@]21C [Compound (8), methyl (20S/R)-acetoxy-11β,17-dihydroxy-9α-fluoro-16α-methyl-3-oxo-1,4-pregnadien-21-oate] | did not show significant difference from reference | – | – | – | – | – | – | – | –
COC(=O)[C@H](O)[C@@]1(O)[C@H](C)C[C@H]2[C@@H]3CCC4=CC(=O)C=C[C@]4(C)[C@@]3(F)[C@@H](O)C[C@@]21C [(6), methyl (20R)-9α-fluoro-16α-methyl-11β,17,20-trihydroxy-3-oxo-1,4-pregnadien-21-oate] | did not show significant difference from reference | – | – | – | – | – | – | – | –
